This test deals with fetal cells. Kind of test: Fetal cell number in blood drawn into sodium heparin or EDTA tubes, digital PCR. As to conditions: composition containing heparin compared to composition containing EDTA; processed within 2 hrs after blood draw; FIG. 1. It counts as cell-based. On the procedure:
The number of fetal cells in solutions containing EDTA or heparin were compared (FIG. 1). Pre-procedural blood samples (10 ml per condition) were drawn into either sodium heparin tubes or EDTA tubes. Samples were processed within 2 hrs after blood draw. Briefly, whole blood samples were centrifuged to separate blood cells and plasma. Fetal gender was determined by digital PCR using plasma. Blood cell pellets were washed 5 times in PBS to remove cell-free DNA. DNA was then extracted from washed blood cells with a Qiagen column. The fetal cell number in samples with a male fetus was enumerated by digital PCR.

As for heparin, the fetal cell stability entry was “higher stability”.
